The source of these data is BindingDB's records for doi:10.1021/jm701437d (The Institute of Cancer Research, 2008).

A word on the IC50: it is the concentration needed to halve the response being measured. A high value points to lower potency.

Bounds are passed on as bounds.

The target in one test is Glycogen synthase kinase-3 beta (Homo sapiens, UniProt P49841). The experiment in a line: Inhibition of GSK3-beta in human PC3M cells by ELISA.
Glycogen synthase kinase-3 beta, sequence (P49841 whole entry): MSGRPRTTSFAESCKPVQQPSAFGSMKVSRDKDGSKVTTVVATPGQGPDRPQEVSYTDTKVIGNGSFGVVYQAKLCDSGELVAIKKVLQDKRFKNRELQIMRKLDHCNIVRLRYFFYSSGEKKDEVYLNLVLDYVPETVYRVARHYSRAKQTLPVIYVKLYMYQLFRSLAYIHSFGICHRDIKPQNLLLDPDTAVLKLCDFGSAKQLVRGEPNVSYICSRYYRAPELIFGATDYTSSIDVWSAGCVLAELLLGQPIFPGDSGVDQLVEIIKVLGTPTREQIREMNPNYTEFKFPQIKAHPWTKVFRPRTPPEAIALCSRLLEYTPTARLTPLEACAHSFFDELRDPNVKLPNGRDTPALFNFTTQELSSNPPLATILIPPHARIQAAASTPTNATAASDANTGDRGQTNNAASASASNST
In turn, `O=c1cc(N2CCOCC2)oc2c(-c3ccccc3)cccc12` showed a half-inhibitory concentration (IC50) of 8.1 µM.

`NCC1(c2ccc(Cl)cc2)CCN(c2ncnc3[nH]ccc23)CC1` registered an IC50 of 0.59 µM. This IC50 lies about 14-fold lower than the previous one.

Turning to `NC(c1ccc(Cl)cc1)C1CCN(c2ccnc3[nH]ccc23)CC1` (centres undefined), the half-inhibitory concentration (IC50) came to 0.59 µM.

`NCC1(Cc2ccc(Cl)cc2)CCN(c2ncnc3[nH]ccc23)CC1` showed a half-inhibitory concentration (IC50) of 1.4 µM.

Target in the next test: not listed separately
The experiment in a line: Inhibition of GSK3-beta in human PC3M cells by ELISA. Background: An ELISA detects its analyte on a solid surface through an enzyme-linked reagent.
Take `NC1CCN(c2ncnc3[nH]ccc23)CC1`: the IC50 was 15 µM.

For `NC1(c2ccc(Cl)cc2)CCN(c2ncnc3[nH]ccc23)CC1`, the midpoint of inhibition, the IC50, lay at 0.6 µM.

For the compound `NCC1(Cc2ccc(Cl)cc2)CCN(c2ncnc3nc[nH]c23)CC1`, the concentration for half-maximal inhibition (IC50) turned out to be 1.7 µM. This IC50 is about 2.8-fold higher than that of the compound before.

`NCC1(c2ccc(Cl)cc2)CCN(c2ccnc3[nH]ccc23)CC1` had a concentration for half-maximal inhibition (IC50) of 1.4 µM. This IC50 and that of the compound before are within 1.5-fold of each other.

In the case of `NC(c1ccc(Cl)cc1)C1CCN(c2ccnc3[nH]ccc23)CC1` (centres undefined), the IC50 is 2 µM.

`NC(c1ccccc1)C1CCN(c2ncnc3[nH]ccc23)CC1` (centres undefined): the IC50 was > 30 µM.

`NCC1(c2ccc(Cl)cc2)CCN(c2ncnc3nc[nH]c23)CC1` registered an IC50 of 1.3 µM.

Compound `NCC1CCN(c2ncnc3[nH]ccc23)CC1` displayed an IC50 of 11 µM.

For the compound `NC1CCN(c2ncnc3n[nH]cc23)CC1`, the half-maximal inhibitory concentration (IC50) is > 30 µM.

With `NCC1CCN(c2ncnc3n[nH]cc23)CC1`, the IC50 is > 30 µM.
